From patent publication US11028127B2, “Peptides capable of reactivating p53 mutants” (Yeda Research and Development Co. Ltd., priority 2013, dated 2021)

Molecular target: T1, Mut-p53 (R175H p53) (Homo sapiens, UniProt P04637, R175H)
T1 construct: a hot spot full length mutant p53 Mut-p53 R175H (R175H p53); expressed in transfected cells; host or cells: H1299 (p53-null) cells stably overexpressing R175H p53; cell extract
Assay: p53/DNA binding ELISA kit (R&D), binding to p53-RE DNA
Assay type: biochemical
Details: H1299-R175H p53 cell extracts, vs background (NT)
Excerpt: A commercial p53/DNA binding kit (R&D) was used, according to manufacturer instructions. Briefly, 96 well plates were coated with anti-p53 antibody overnight. Cell extracts containing p53 were reacted with an oligonucleotide that contains a p53 consensus binding site, labeled with biotin, in the presence or absence (NT) of test peptides. WT p53 is expected to bind this DNA binding site as well as to the antibody coating the test wells of the plate. Excess p53 and oligos are washed away and streptavidin-HRP is used to quantify the amount of oligos in the well, which is proportional to the DNA bound by p53. TMB assay was performed to determine HRP levels (450 nm). The results are presented as relative absorbance (at 450 nm) (Y-Axis) of each tested sample. MCF7 and the H1299-Mut-p53 (ts) A135V cells serve as positive controls for WT p53.
For these experiments, a commercial p53/DNA binding kit of “R&D” (Cat-DYC1355-5 Lot-1273366FA) was used, in accordance with manufacturer guide lines. Briefly, 96 well plates are coated with anti-p53 antibody overnight. Cell extracts containing p53 are reacted with an oligonucleotide that contains a p53 consensus binding site (provided in the kit), labeled with biotin, in the presence or absenc.
e (NT) of test peptides. WT p53 is expected to bind this DNA binding site as well as to the antibody coating the test wells of the plate. Excess p53 and oligos were washed away and streptavidin-HRP was used to quantify the amount of oligos in the well, which is proportional to the DNA bound by p53. TMB assay was performed to determine HRP (ES001-1L-K) levels (450 nm).
To measure the effect of the tested peptides on DNA binding of Mut-p53, a commercial ELISA kit, (R&D Systems DYC1355-5, Lot-1273366FA), was used as a high-throughput assay to quantify p53 activation. This kit uses a 96-well plate format. The kit was used according to manufacturer's instructions. Wells were coated with anti-p53 antibody overnight. Cell extracts containing p53 were reacted with a biotin labeled oligonucleotide containing a p53 consensus binding site (included in the kit). WT p53 is expected to bind this oligo as well as the antibody coating the wells. Excess p53 and oligo were washed away in wash buffer (0.05% Tween 20 in PBS, pH 7.2-7.4; R&D Systems, Catalog #WA126). Then, streptavidin-HRP (R&D Systems, Part 890803, provided in the kit) was added for 15-45 min to quantify the amount of oligo in the well, which is proportional to the DNA bound by p53. If the addition of a peptide to Mut-p53 extracts increases ELISA reading compared to background, this peptide is considered as functionally effective and may be selected for further analysis. […] As with the conformational screening, MCF7 and the H1299-Mut-p53 (ts) A135V cells served as positive controls for WT p53. Extracts were added to the wells coated with αp53-Ab, and after several washing steps, streptavidin-HRP was added for 1 hour, and then plates were washed again and TMB (substrate to HRP) assay was performed.

YRRLLIGMMWRRRRRRRRRRR [pCAP-68]
binding of H1299-R175H p53 extracts to p53-RE DNA: elevate the binding of H1299-R175H p53 extracts to p53-RE DNA
